Laboratory results taken from patent publication US20070042949A1, “Pharmaceutical compositions comprising an epitope of platelet gpiiia protein” (priority 2003, published 2007).

Test system: Peripheral blood mononuclear cells (PBMC) from HPA-1b1b women
Assay: T-cell proliferation assay (3H-thymidine incorporation) of PBMC stimulated with HPA-1a/1b 15-mer peptides, HPA-1b1b women
Type: cell-based, human
Details: peptide 20 μg/mL; for immunodominance in stimulating specific T-cell responses in vitro: HPA-1a alloimmunised HPA-1b1b women; for strength of PBMC proliferative response (in words): HPA-1b1b women
Method: The cells were stimulated with a panel of 15-mer peptides corresponding to the sequences of the HPA-1a and 1b alloantigens containing Leu33 and Pro33 respectively (see FIG. 1). Two categories of control donors were utilised; 1 HPA-1b1b unimmunised donor and 11 HPA-1a randomly selected female donors. Testing of both patients and controls was carried out in cell culture conditions designed to favour proliferation by previously activated T-cells, rather than primary responses.
The human platelet membrane GPIIIa amino acid sequence reported by Frachet et al Mol. Biol. Rep. 1990, vol 14, 27-33 (genebank accession no: M35999) was used as the basis for production of the HPA-1a and HPA-1b GPIIIa synthetic peptides. Two panels of 15-mer peptides were synthesised corresponding to the sequences of the HPA-1 polymorphic region, with either the Leu-33 or Pro-33 at each possible position (see FIG. 1). One set of the 15-mer peptides contained the leucine polymorphism and the other set of 15 contained the proline polymorphism. To ensure purity each panel was synthesized by f-moc chemistry. The peptides were reconstituted to a concentration of 2.0 mg/ml and used for stimulation of PBMC at 20 μg/mL in culture.
Mononuclear cells were recovered from samples of peripheral blood of all patients and control donors by density gradient centrifugation technique (Lymphoprep; Nycomed, Denmark) according to the manufacturer's instructions. The cells were then manually counted by hemocytometer.
Peripheral blood mononuclear cells were cultured at a concentration of 1.25×10^6 cells per mL in Alpha Modification of Eagle's Medium (Sigma Diagnostic, St. Louis, Mo., USA.) supplemented with 4 mmol/l L-glutamine (Gibco, Paisley, UK), 100 μg/ml streptomycin sulphate (Sigma Diagnostic, St. Louis, Mo., USA), 100 u/mL sodium benzylpenicillin G (Sigma Diagnostic, St. Louis, Mo., USA), 20 mmol/L HEPES, PH 7.2 (Sigma Diagnostic, St. Louis, Mo., USA) and 5% autologous serum or AB serum. Twelve microlitres of synthetic HPA-1a/1b peptides and control antigens (PPD, KLH and ConA) were each added to appropriate wells of the microtitre plates before the cell culture suspension was layered. The culture plates were incubated at 37° C. in a humidified atmosphere of 95% air and 5% CO2 for 5 days. T-cell proliferation in cultures was estimated from the incorporation of ^3H-thymidine in triplicate 100 μL samples withdrawn from the plates 5 days after stimulation. T-cell proliferation results were presented either as the mean counts per minute (CPM)±SD of the triplicate samples or as a stimulation index (SI) expressing the ratio of mean CPM in stimulated versus unstimulated control cultures. A SI >3 was interpreted as representing a positive response.

| Substance | immunodominance in stimulating specific T-cell responses in vitro | percentage of HPA-1a alloimmunised HPA-1b1b women in whom the peptide elicited proliferation of T-cells (5 days, SI >3 = positive response, 14 alloimmunised women) | strength of PBMC proliferative response (in words) (5 days) |
| --- | --- | --- | --- |
| SEQ ID No:1: 15-mer synthetic HPA-1a (Leu-33) GPIIIa peptide, polymorphism in the C-terminal part of the peptide (VSPMCAWCSDEALPL; listed as Homo sapiens) | immunodominant | approximately 50% | – |
| SEQ ID No:2: 15-mer synthetic HPA-1a (Leu-33) GPIIIa peptide, polymorphism in the C-terminal part of the peptide (SPMCAWCSDEALPLG; listed as Homo sapiens) | immunodominant | – | – |
| SEQ ID No:3: 15-mer synthetic HPA-1a (Leu-33) GPIIIa peptide, polymorphism in the C-terminal part of the peptide (PMCAWCSDEALPLGS; listed as Homo sapiens) | immunodominant | – | – |
| SEQ ID No:4: 15-mer synthetic HPA-1a (Leu-33) GPIIIa peptide, polymorphism in the C-terminal part of the peptide (MCAWCSDEALPLGSP; listed as Homo sapiens) | immunodominant | – | – |
| SEQ ID No:5: 15-mer synthetic HPA-1a (Leu-33) GPIIIa peptide, polymorphism in the C-terminal part of the peptide (CAWCSDEALPLGSPR; listed as Homo sapiens) | immunodominant | – | – |
| SEQ ID No:6: 15-mer synthetic HPA-1a (Leu-33) GPIIIa peptide, polymorphism in the C-terminal part of the peptide (AWCSDEALPLGSPRC; listed as Homo sapiens) | immunodominant | – | strong responses in particular individuals |
| SEQ ID No:7: 15-mer synthetic HPA-1a (Leu-33) GPIIIa peptide, polymorphism in the C-terminal part of the peptide (WCSDEALPLGSPRCD; listed as Homo sapiens) | immunodominant | – | strong responses in particular individuals |
